PubChem BioAssay (NCI)
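These data come from cells grown in 96-well plates and exposed to compound for 48 hours at five concentrations. TGI: concentration producing complete growth inhibition.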

Columns and labels:
Experiment in all cases: NCI-60 cell line screen, 48 h
SF-295 CNS = tested on: SF-295 CNS
MDA-MB-435 = tested on: MDA-MB-435
CAKI-1 renal = tested on: CAKI-1 renal
UO-31 renal = tested on: UO-31 renal
SN12C renal = tested on: SN12C renal
ACHN renal = tested on: ACHN renal
MDA-N = tested on: MDA-N
M14 melanoma = tested on: M14 melanoma
SK-MEL-5 melanoma = tested on: SK-MEL-5 melanoma
HCC-2998 colon = tested on: HCC-2998 colon
HS 578T breast = tested on: HS 578T breast
EKVX NSCLC = tested on: EKVX NSCLC
SNB-19 CNS = tested on: SNB-19 CNS
KM12 colon = tested on: KM12 colon
HL-60(TB) leukemia = tested on: HL-60(TB) leukemia
SR leukemia = tested on: SR leukemia
786-0 renal = tested on: 786-0 renal
BT-549 breast = tested on: BT-549 breast
A498 renal = tested on: A498 renal
DU-145 prostate = tested on: DU-145 prostate
MOLT-4 leukemia = tested on: MOLT-4 leukemia
NCI-H460 lung = tested on: NCI-H460 lung
HOP-62 NSCLC = tested on: HOP-62 NSCLC
NCI/ADR-RES ovarian = tested on: NCI/ADR-RES ovarian
SF-268 CNS = tested on: SF-268 CNS
MCF7 breast = tested on: MCF7 breast
HCT-15 colon = tested on: HCT-15 colon
SK-MEL-2 melanoma = tested on: SK-MEL-2 melanoma
SW-620 colon = tested on: SW-620 colon
SNB-75 CNS = tested on: SNB-75 CNS
RPMI-8226 leukemia = tested on: RPMI-8226 leukemia
UACC-257 melanoma = tested on: UACC-257 melanoma
OVCAR-5 ovarian = tested on: OVCAR-5 ovarian
NCI-H522 lung = tested on: NCI-H522 lung
K-562 leukemia = tested on: K-562 leukemia
PC-3 prostate = tested on: PC-3 prostate
COLO 205 colon = tested on: COLO 205 colon
MALME-3M melanoma = tested on: MALME-3M melanoma
HT29 colon = tested on: HT29 colon
A549 NSCLC = tested on: A549 NSCLC
UACC-62 melanoma = tested on: UACC-62 melanoma
IGROV1 ovarian = tested on: IGROV1 ovarian
MDA-MB-231 breast = tested on: MDA-MB-231 breast
HCT-116 colon = tested on: HCT-116 colon
SK-MEL-28 melanoma = tested on: SK-MEL-28 melanoma
NCI-H23 lung = tested on: NCI-H23 lung
CCRF-CEM leukemia = tested on: CCRF-CEM leukemia
SK-OV-3 ovarian = tested on: SK-OV-3 ovarian
U251 CNS = tested on: U251 CNS
SF-539 CNS = tested on: SF-539 CNS
T-47D breast = tested on: T-47D breast
LOX IMVI melanoma = tested on: LOX IMVI melanoma
TK-10 renal = tested on: TK-10 renal
OVCAR-3 ovarian = tested on: OVCAR-3 ovarian
OVCAR-8 ovarian = tested on: OVCAR-8 ovarian
NCI-H226 lung = tested on: NCI-H226 lung
HOP-92 NSCLC = tested on: HOP-92 NSCLC
OVCAR-4 ovarian = tested on: OVCAR-4 ovarian

## CCOC(=O)c1ccc(-n2cnc(-c3ccc([N+](=O)[O-])cc3)c2)cc1
SF-295 CNS
  TGI: > 100 µM
MDA-MB-435
  TGI: > 100 µM
CAKI-1 renal
  TGI: > 100 µM
UO-31 renal
  TGI: > 100 µM
SN12C renal
  TGI: > 100 µM
ACHN renal
  TGI: > 100 µM
MDA-N
  TGI: > 100 µM
M14 melanoma
  TGI: > 100 µM
SK-MEL-5 melanoma
  TGI: 74.5 µM
HCC-2998 colon
  TGI: > 100 µM
HS 578T breast
  TGI: > 100 µM
EKVX NSCLC
  TGI: > 100 µM
SNB-19 CNS
  TGI: > 100 µM
KM12 colon
  TGI: > 100 µM
HL-60(TB) leukemia
  TGI: > 100 µM
SR leukemia
  TGI: > 100 µM
786-0 renal
  TGI: > 100 µM
BT-549 breast
  TGI: > 100 µM
A498 renal
  TGI: > 100 µM
DU-145 prostate
  TGI: > 100 µM
MOLT-4 leukemia
  TGI: > 100 µM
NCI-H460 lung
  TGI: > 100 µM
HOP-62 NSCLC
  TGI: > 100 µM
NCI/ADR-RES ovarian
  TGI: > 100 µM
SF-268 CNS
  TGI: > 100 µM
MCF7 breast
  TGI: > 100 µM
HCT-15 colon
  TGI: > 100 µM
SK-MEL-2 melanoma
  TGI: > 100 µM
SW-620 colon
  TGI: > 100 µM
SNB-75 CNS
  TGI: > 100 µM
RPMI-8226 leukemia
  TGI: > 100 µM
UACC-257 melanoma
  TGI: > 100 µM
OVCAR-5 ovarian
  TGI: > 100 µM
NCI-H522 lung
  TGI: 36 µM
K-562 leukemia
  TGI: > 100 µM
PC-3 prostate
  TGI: > 100 µM
COLO 205 colon
  TGI: > 100 µM
MALME-3M melanoma
  TGI: > 100 µM
HT29 colon
  TGI: > 100 µM
A549 NSCLC
  TGI: > 100 µM
UACC-62 melanoma
  TGI: > 100 µM
IGROV1 ovarian
  TGI: > 100 µM
MDA-MB-231 breast
  TGI: > 100 µM
HCT-116 colon
  TGI: > 100 µM
SK-MEL-28 melanoma
  TGI: > 100 µM
NCI-H23 lung
  TGI: > 100 µM
CCRF-CEM leukemia
  TGI: > 100 µM
SK-OV-3 ovarian
  TGI: > 100 µM
U251 CNS
  TGI: > 100 µM
SF-539 CNS
  TGI: > 100 µM
T-47D breast
  TGI: > 100 µM
LOX IMVI melanoma
  TGI: > 100 µM
TK-10 renal
  TGI: > 100 µM
OVCAR-3 ovarian
  TGI: > 100 µM
OVCAR-8 ovarian
  TGI: > 100 µM
NCI-H226 lung
  TGI: > 100 µM

## COc1c2c(c3c(c1OC)c(=O)c1ccccc1n3C)OCO2
SF-295 CNS
  TGI: > 100 µM
MDA-MB-435
  TGI: > 100 µM
CAKI-1 renal
  TGI: > 100 µM
UO-31 renal
  TGI: > 100 µM
SN12C renal
  TGI: > 100 µM
ACHN renal
  TGI: > 100 µM
MDA-N
  TGI: > 100 µM
M14 melanoma
  TGI: > 100 µM
SK-MEL-5 melanoma
  TGI: > 100 µM
HCC-2998 colon
  TGI: > 100 µM
HS 578T breast
  TGI: > 100 µM
EKVX NSCLC
  TGI: > 100 µM
SNB-19 CNS
  TGI: > 100 µM
KM12 colon
  TGI: > 100 µM
HL-60(TB) leukemia
  TGI: > 100 µM
SR leukemia
  TGI: > 100 µM
786-0 renal
  TGI: > 100 µM
BT-549 breast
  TGI: > 100 µM
A498 renal
  TGI: > 100 µM
DU-145 prostate
  TGI: > 100 µM
MOLT-4 leukemia
  TGI: > 100 µM
NCI-H460 lung
  TGI: > 100 µM
HOP-62 NSCLC
  TGI: > 100 µM
NCI/ADR-RES ovarian
  TGI: > 100 µM
SF-268 CNS
  TGI: > 100 µM
MCF7 breast
  TGI: > 100 µM
HCT-15 colon
  TGI: > 100 µM
SK-MEL-2 melanoma
  TGI: > 100 µM
SW-620 colon
  TGI: > 100 µM
SNB-75 CNS
  TGI: > 100 µM
RPMI-8226 leukemia
  TGI: > 100 µM
UACC-257 melanoma
  TGI: > 100 µM
OVCAR-5 ovarian
  TGI: > 100 µM
HOP-92 NSCLC
  TGI: > 100 µM
NCI-H522 lung
  TGI: > 100 µM
K-562 leukemia
  TGI: > 100 µM
PC-3 prostate
  TGI: > 100 µM
COLO 205 colon
  TGI: > 100 µM
HT29 colon
  TGI: > 100 µM
A549 NSCLC
  TGI: > 100 µM
UACC-62 melanoma
  TGI: > 100 µM
IGROV1 ovarian
  TGI: > 100 µM
MDA-MB-231 breast
  TGI: > 100 µM
HCT-116 colon
  TGI: > 100 µM
SK-MEL-28 melanoma
  TGI: > 100 µM
NCI-H23 lung
  TGI: > 100 µM
CCRF-CEM leukemia
  TGI: > 100 µM
SK-OV-3 ovarian
  TGI: > 100 µM
U251 CNS
  TGI: > 100 µM
SF-539 CNS
  TGI: > 100 µM
T-47D breast
  TGI: > 100 µM
LOX IMVI melanoma
  TGI: > 100 µM
TK-10 renal
  TGI: > 100 µM
OVCAR-3 ovarian
  TGI: > 100 µM
OVCAR-8 ovarian
  TGI: > 100 µM
OVCAR-4 ovarian
  TGI: > 100 µM
NCI-H226 lung
  TGI: > 100 µM
